This note sets out measurements from US9738648B2, “Pyridines, pyrimidines, and pyrazines, as BTK inhibitors and uses thereof” (Merck Patent GmbH, priority 2013, dated 2017).

Molecules are shown by their SMILES.

In experiment [1] the test system is anti-IgM-induced expression of CD69 in freshly isolated human peripheral blood mononuclear cells (PBMCs). In words: Assay B: inhibition of anti-IgM-induced expression of CD69 on CD19 positive cells (B cells) in human PBMCs. The format is cell-based. As to conditions: PBMC, 1 h pre-treatment, overnight anti-human IgM stimulation, CD69 on CD19 positive cells by flow cytometry, read-out: Assay B (mol/L (M)). The protocol:
Btk is critical for mediating the signalling of B cell antigen receptor (BCR) after anti-IgM stimulation. Based on this principle, a functional cell-based assay was established to determine the potency of compounds at inhibiting anti-IgM-induced expression of CD69, a downstream BCR signalling event, in freshly isolated human peripheral blood mononuclear cells (PBMCs). In the assay, a 90 μl PBMC suspension containing 2.5×10^5 cells was pre-treated with 10 μl of test compound at various concentrations for an hour, and then incubated overnight (approximately 16-18 hours) with 5 μl 420 μg/ml affiniPure F(ab′)2 fragment goat anti-human IgM Fc fragment per well (Dianova, Cat. No.: 109-006-129). After the incubation, the cells were washed and immunostained with an APC labelled mouse anti-human CD69 (BD Biosciences; clone: FN50), a PerCP-Cy5.5 labelled mouse anti-human CD19 (BD Biosciences; clone: SJ25C1) and a FITC-labelled mouse anti-human CD3 (BD Biosciences; clone: HIT3a), and fixed for flow cytometric analysis of CD69 expression on CD19 positive cells (B cells). The percentage of CD69 expressing CD19 positive cells was plotted against the concentrations of test compounds to obtain a concentration response curve, and calculate an IC50 value as a measure of the potency of test compounds in the assay.
On the technique in general: A flow cytometer gives signals particle by particle.

Experiment [2] concerns the target T1, full-length human BTK (Homo sapiens, UniProt Q06187).
T1 construct: 2.5× stocks of full-length human BTK (08-080) from CarnaBio USA, Inc; purchased CarnaBio USA, Inc., Natick, Mass; 08-080
Kind of experiment: BTK IC50 Enzyme Assay (Assay A), microfluidic off-chip mobility shift kinase assay. The experiment is classed as biochemical. As to conditions: kinKDR peptide substrate, 90 min at 27° C. The method, then: BTK IC50 Enzyme Assay (Assay A)
The following describes a microfluidic, off-chip mobility shift kinase assay used to measure inherent potency of compounds against BTK enzyme.
2.5× stocks of full-length human BTK (08-080) from CarnaBio USA, Inc., Natick, Mass., 1.6×ATP and appropriate kinKDR peptide substrate (FITC-AHA-EEPLYWSFPAKKK10 NH2) were prepared in kinase reaction buffer consisting of 25 mM MgCl2, 0.015% Brij-35 (30%), 100 mM Hepes, pH 7.5, and 10 mM DTT.
5 uL of enzyme buffer and 7.5 uL of ATP/kinKDR peptide substrate mix were added to Matrix (#115304) 384-well, sterile, polypropylene plates (Thermo Fisher Scientific, 15 Hudson, N.H.) with 125 nL of serially diluted compounds prepared in 100% DMSO, and incubated for 90 min. at 27° C. Following the incubation period, reactions were stopped by adding 60 uL stop buffer consisting of 100 mM Hepes, pH 7.5, 0.015% Brij-35 (30%), 0.277% Coating Reagent #3 (Caliper Life Sciences, Mountain View, Calif.), 5% DMSO. Stopped reactions were monitored at −2 PSI, −3000 V/−700 V in a LabChip 3000 plate 20 reader from Caliper Life Sciences, a PerkinElmer Company (Hopkinton, Mass.), and the activity was measured by off-chip mobility shift assay measuring the charge/mass difference between substrate and product resulting from peptide phosphorilation. IC50 and efficacy were determined by plotting log [Inhibitor] vs. % Activity in GeneData Screener (Basel, Switzerland).

T1 sequence (Q06187 whole entry): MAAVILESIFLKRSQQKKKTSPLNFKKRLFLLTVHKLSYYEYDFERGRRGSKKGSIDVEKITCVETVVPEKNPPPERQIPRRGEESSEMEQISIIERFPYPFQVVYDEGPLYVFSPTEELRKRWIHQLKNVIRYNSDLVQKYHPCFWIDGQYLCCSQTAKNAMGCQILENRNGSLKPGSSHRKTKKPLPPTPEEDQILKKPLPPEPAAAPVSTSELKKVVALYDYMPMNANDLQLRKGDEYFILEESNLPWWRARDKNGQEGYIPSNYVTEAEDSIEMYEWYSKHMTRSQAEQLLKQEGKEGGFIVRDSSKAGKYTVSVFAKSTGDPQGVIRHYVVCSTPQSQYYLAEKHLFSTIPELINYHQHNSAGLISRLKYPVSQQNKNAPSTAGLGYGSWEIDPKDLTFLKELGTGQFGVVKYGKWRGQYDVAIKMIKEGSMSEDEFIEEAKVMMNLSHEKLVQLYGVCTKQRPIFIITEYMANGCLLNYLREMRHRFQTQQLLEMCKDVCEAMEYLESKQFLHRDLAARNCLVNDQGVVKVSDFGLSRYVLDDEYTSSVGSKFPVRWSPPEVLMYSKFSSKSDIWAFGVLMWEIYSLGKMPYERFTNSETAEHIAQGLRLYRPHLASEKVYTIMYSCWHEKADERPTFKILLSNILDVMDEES

For the compound `C=CC(=O)N1CC(n2ccc3ncnc(Oc4ccc(Oc5ccccc5)cc4)c32)C1` [Compound 3, 1-(3-(4-(4-phenoxyphenoxy)-5H-pyrrolo[3,2-d]pyrimidin-5-yl)azetidin-1-yl)prop-2-en-1-one], the IC50 is less than 1e-07 M in experiment [1] and less than 100 nM in experiment [2].
Regarding `C=CC(=O)N[C@H]1C[C@@H](n2ccc3ncnc(Oc4ccc(Oc5ccccc5)cc4)c32)C1` [Compound 10, N-(cis-3-(4-(4-phenoxyphenoxy)-5H-pyrrolo[3,2-d]pyrimidin-5-yl)cyclobutyl)acrylamide], the IC50 in experiment [1] was 1e-07 to 1e-06 M; in experiment [2], less than 100 nM.
The corresponding values for `CN(C)C/C=C/C(=O)N1CC(n2ccc3ncc(-c4ccc(Oc5ccccc5)cc4)cc32)C1` [Compound 13, (E)-4-(dimethylamino)-1-(3-(6-(4-phenoxyphenyl)-1H-pyrrolo[3,2-b]pyridin-1-yl)azetidin-1-yl)but-2-en-1-one] are 1e-07 to 1e-06 M and less than 100 nM.
On the same counts, the results for `O=C(CCCCCNc1ccc([N+](=O)[O-])c2nonc12)NCCN1CCN(C/C=C/C(=O)N2CC(n3ccc4ncnc(Oc5ccc(Oc6ccccc6)cc5)c43)C2)CC1` [Compound 31, (E)-6-((7-nitrobenzo[c][1,2,5]oxadiazol-4-yl)amino)-N-(2-(4-(4-oxo-4-(3-(4-(4-phenoxyphenoxy)-5H-pyrrolo[3,2-d]pyrimidin-5-yl)azetidin-1-yl)but-2-en-1-yl)piperazin-1-yl)ethyl)hexanamide] are 1e-06 to 5e-06 M and less than 100 nM.
On the same counts, the results for `N#CN1CCC(n2ccc3ncnc(Oc4ccc(Oc5ccccc5)cc4)c32)C1` (stereo not drawn) [Compound 60, 3-[4-(4-phenoxyphenoxy)-5H-pyrrolo[3,2-d]pyrimidin-5-yl]pyrrolidine-1-carbonitrile] are 1e-07 to 1e-06 M and less than 100 nM.
Consider `CN(C#N)[C@H]1CC[C@H](n2ccc3ncnc(Oc4ccc(Oc5ccccc5)cc4)c32)CC1` [Compound 70, (1R,4R)—N-cyano-N-methyl-4-[4-(4-phenoxyphenoxy)-5H-pyrrolo[3,2-d]pyrimidin-5-yl]cyclohexan-1-amine], for which the IC50 in experiment [2] was in the range of 100 to 1000 nM.
Same read-out and setting: as for `N#CN1CC[C@@H](n2ccc3ncnc(Oc4ccc(Oc5ccccc5)cc4)c32)C1` [Compound 71, (3R)-3-[4-(4-phenoxyphenoxy)-5H-pyrrolo[3,2-d]pyrimidin-5-yl]pyrrolidine-1-carbonitrile], the figure is greater than 5000 nM.
In the case of `N#CN1CC[C@H](n2ccc3ncnc(Oc4ccc(Oc5ccccc5)cc4)c32)C1` [Compound 72, (3S)-3-[4-(4-phenoxyphenoxy)-5H-pyrrolo[3,2-d]pyrimidin-5-yl]pyrrolidine-1-carbonitrile], the results for the IC50 in experiment [1] and in experiment [2] were 1e-07 to 1e-06 M and less than 100 nM, respectively.
For `NCCOCCOCCOCCOCCC(=O)NCCN1CCN(C/C=C/C(=O)N2CCC(n3ccc4ncnc(Oc5ccc(Oc6ccccc6)cc5)c43)CC2)CC1` [Compound 73, (E)-1-amino-N-(2-(4-(4-oxo-4-(4-(4-(4-phenoxyphenoxy)-5H-pyrrolo[3,2-d]pyrimidin-5-yl)piperidin-1-yl)but-2-en-1-yl)piperazin-1-yl)ethyl)-3,6,9,12-tetraoxapentadecan-15-amide], the IC50 in experiment [2] was less than 100 nM.
Same read-out and setting: as for `CC1=CC(C)=[N+]2C1=C(c1ccc(NC(=S)NCCOCCOCCOCCOCCC(=O)NCCN3CCN(C/C=C/C(=O)N4CCC(n5ccc6ncnc(Oc7ccc(Oc8ccccc8)cc7)c65)CC4)CC3)cc1)c1c(C)cc(C)n1[B-]2(F)F` [Compound 74, (E)-1-((4-(5,5-difluoro-1,3,7,9-tetramethyl-5H-414,514-dipyrrolo[1,2-c:2′,1′-f][1,3,2]diazaborinin-10-yl)phenyl)amino)-N-(2-(4-(4-oxo-4-(4-(4-(4-phenoxyphenoxy)-5H-pyrrolo[3,2-d]pyrimidin-5-yl)piperidin-1-yl)but-2-en-1-yl)piperazin-1-yl)ethyl)-1-thioxo-5,8,11,14-tetraoxa-2-azaheptadecan-17-amide], the figure is 100 to 1000 nM; as for `N#CN1CC[C@@H](n2ccc3ncnc(Oc4ccc(Oc5ccc(F)cc5F)cc4)c32)C1` [Compound 75], greater than 5000 nM.
Same read-out and setting: as for `N#CN1CC[C@H](n2ccc3ncnc(Oc4ccc(Oc5ccc(F)cc5F)cc4)c32)C1` [Compound 76], the figure is 100 to 1000 nM.
